Patent publication US8796256B2 (Janssen Pharmaceutica NV, priority 2010, dated 2014)

target: T1, ERR1 (also known as ERR-α or ERR-1) (Homo sapiens, UniProt P11474); assay: TR-FRET assay (disruption of co-activator peptide binding to ERR1 LBD); type: biochemical; settings: 6 nM 6His-ERR1LBD, 6 nM GST-SRC-2 peptide; average of 3 independent experiments
T1 sequence (P11474 193-421 limits assumed): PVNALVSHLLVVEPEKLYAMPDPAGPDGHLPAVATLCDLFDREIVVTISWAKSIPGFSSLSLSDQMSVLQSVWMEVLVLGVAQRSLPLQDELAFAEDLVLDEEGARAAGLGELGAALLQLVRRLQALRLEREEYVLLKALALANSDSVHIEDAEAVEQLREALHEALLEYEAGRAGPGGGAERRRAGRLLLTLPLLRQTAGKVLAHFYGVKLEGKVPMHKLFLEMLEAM
How it was run: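 Homogeneous TR-FRET measuring displacement of GST-hSRC2 co-activator peptide (6 nM) from His-tagged ERR1 LBD (6 nM), detected with α-GST Eu cryptate (30 nM) and α-His-XL665 (7.5 nM). Buffer 25 mM Tris pH 8, 2.5 mM Hepes, 20 mM KCl, 1 mM DTT, 0.05 mg/mL delipidated BSA; equilibration 4-18 h at 25° C. Hyperbolic dose-response fit, mean of 3 experiments.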

EC50 | SMILES
16 nM | O=C1S/C(=C\c2ccc3c(cnn3Cc3ccc(Cl)cc3C(F)(F)F)c2)C(=O)N1CC(O)CO (stereo not shown) [Compound 43, (5Z)-5-({1-[4-Chloro-2-(trifluoromethyl)benzyl]-1H-indazol-5-yl}methylidene)-3-(2,3-dihydroxypropyl)-1,3-thiazolidine-2,4-dione]
112 nM | O=C1S/C(=C\c2ccc3c(cnn3Cc3ccc(Cl)cc3C(F)(F)F)c2)C(=O)N1CCN1CCCNCC1 [Compound 104, (5Z)-5-({1-[4-Chloro-2-(trifluoromethyl)benzyl]-1H-indazol-5-yl}methylidene)-3-[2-(1,4-diazepan-1-yl)ethyl]-1,3-thiazolidine-2,4-dione]
76 nM | O=C(O)C(Cc1c[nH]cn1)N1C(=O)S/C(=C\c2ccc3c(cnn3Cc3ccc(Cl)cc3C(F)(F)F)c2)C1=O (stereo not shown) [Compound 229, 2-[(5Z)-5-({1-[4-Chloro-2-(trifluoromethyl)benzyl]-1H-indazol-5-yl}methylidene)-2,4-dioxo-1,3-thiazolidin-3-yl]-3-(1H-imidazol-4-yl)propanoic acid]
27 nM | COc1ccc(Cn2ncc3cc(/C=C4\SC(=O)N(CCN5CCCCC5)C4=O)ccc32)c(C(F)(F)F)c1 [Compound 11, (5Z)-5-[(1-{[4-(Methyloxy)-2-(trifluoromethyl)phenyl]methyl}-1H-indazol-5-yl)methylidene]-3-(2-piperidin-1-ylethyl)-1,3-thiazolidine-2,4-dione]
485 nM | CC(=O)NS(=O)(=O)CN1C(=O)S/C(=C\c2ccc3c(cnn3Cc3ccc(F)cc3C(F)(F)F)c2)C1=O [Compound 64, N-({[(5Z)-5-({1-[4-Fluoro-2-(trifluoromethyl)benzyl]-1H-indazol-5-yl}methylidene)-2,4-dioxo-1,3-thiazolidin-3-yl)methyl}sulfonyl)acetamide]
65 nM | NC1(CCN2C(=O)S/C(=C\c3ccc4c(cnn4Cc4ccc(Cl)cc4C(F)(F)F)c3)C2=O)CCOCC1 [Compound 312, (5Z)-3-[2-(4-Aminotetrahydro-2H-pyran-4-yl)ethyl]-5-({1-[4-chloro-2-(trifluoromethyl)benzyl]-1H-indazol-5-yl}methylidene)-1,3-thiazolidine-2,4-dione]
26 nM | CS(=O)(=O)NN1C(=O)S/C(=C\c2ccc3c(cnn3Cc3ccc(C(F)(F)F)cc3C(F)(F)F)c2)C1=O [Compound 360, N-[(5Z)-5-({1-[2,4-Bis(trifluoromethyl)benzyl]-1H-indazol-5-yl}methylidene)-2,4-dioxo-1,3-thiazolidin-3-yl]methanesulfonamide]
116 nM | O=C(O)CN1C(=O)S/C(=C\c2ccc3c(cnn3Cc3ccc(Cl)cc3C(F)(F)F)c2F)C1=O [Compound 347, [(5Z)-5-({1-[4-Chloro-2-(trifluoromethyl)benzyl]-4-fluoro-1H-indazol-5-yl}methylidene)-2,4-dioxo-1,3-thiazolidin-3-yl]acetic acid]
47 nM | O=C1S/C(=C\c2ccc3c(cnn3Cc3ccc(Cl)cc3C(F)(F)F)c2)C(=O)N1[C@@H]1CCOC1 [Compound 125, (5Z)-5-({1-[4-Chloro-2-(trifluoromethyl)benzyl]-1H-indazol-5-yl}methylidene)-3-[(3R)-tetrahydrofuran-3-yl]-1,3-thiazolidine-2,4-dione]
35 nM | CN(C)C[C@H](O)CN1C(=O)S/C(=C\c2ccc3c(cnn3Cc3ccc(Cl)cc3C(F)(F)F)c2)C1=O [Compound 293, (5Z)-5-({1-[4-Chloro-2-(trifluoromethyl)benzyl]-1H-indazol-5-yl}methylidene)-3-[(2S)-3-(dimethylamino)-2-hydroxypropyl]-1,3-thiazolidine-2,4-dione]
293 nM | CCN1CC[C@@H](N2C(=O)S/C(=C\c3ccc4c(cnn4Cc4ccc(C(F)(F)F)cc4C(F)(F)F)c3)C2=O)[C@H](F)C1 (relative stereo) [Compound 336, (5Z)-5-({1-[2,4-Bis(trifluoromethyl)benzyl]-1H-indazol-5-yl}methylidene)-3-[trans-1-ethyl-3-fluoropiperidin-4-yl]-1,3-thiazolidine-2,4-dione]
238 nM | CC(C)N1CC[C@@H](N2C(=O)S/C(=C\c3ccc4c(cnn4Cc4ccc(C(F)(F)F)cc4C(F)(F)F)c3)C2=O)[C@H](F)C1 (relative stereo) [Compound 331, (5Z)-5-({1-[2,4-Bis(trifluoromethyl)benzyl]-1H-indazol-5-yl}methylidene)-3-[trans-3-fluoro-1-(1-methylethyl)piperidin-4-yl]-1,3-thiazolidine-2,4-dione]
28 nM | COC(=O)C1(N2C(=O)S/C(=C\c3ccc4c(cnn4Cc4ccc(Cl)cc4C(F)(F)F)c3)C2=O)CCN(C)CC1 [Compound 213, Methyl 4-[(5Z)-5-({1-[4-chloro-2-(trifluoromethyl)benzyl]-1H-indazol-5-yl}methylidene)-2,4-dioxo-1,3-thiazolidin-3-yl]-1-methylpiperidine-4-carboxylate]
22 nM | O=C1S/C(=C\c2ccc3c(cnn3Cc3ccc(Cl)cc3C(F)(F)F)c2)C(=O)N1C[C@@H]1CN2CCOC[C@H]2CO1 [Compound 205, (5Z)-5-({1-[4-Chloro-2-(trifluoromethyl)benzyl]-1H-indazol-5-yl}methylidene)-3-[(3S,9aS)-hexahydro-1H-[1,4]oxazino[3,4-c] [1,4]oxazin-3-ylmethyl]-1,3-thiazolidine-2,4-dione]
11 nM | NC(=O)CN1CCN(N2C(=O)S/C(=C\c3ccc4c(cnn4Cc4ccc(Cl)cc4C(F)(F)F)c3)C2=O)CC1 [Compound 353, 2-{4-[(5Z)-5-({1-[4-Chloro-2-(trifluoromethyl)benzyl]-1H-indazol-5-yl}methylidene)-2,4-dioxo-1,3-thiazolidin-3-yl]piperazin-1-yl}acetamide]
29 nM | O=C(O)C1CCC(N2C(=O)S/C(=C\c3ccc4c(c3)nnn4Cc3ccc(Cl)cc3C(F)(F)F)C2=O)CC1 (stereo not shown) [Compound 266, 4-[(5Z)-5-({1-[4-Chloro-2-(trifluoromethyl)benzyl]-1H-benzotriazol-5-yl}methylidene)-2,4-dioxo-1,3-thiazolidin-3-yl]cyclohexanecarboxylic acid]
46 nM | O=C1S/C(=C\c2ccc3c(cnn3Cc3ccc(Cl)cc3C(F)(F)F)c2)C(=O)N1C[C@H]1CN2CCOC[C@H]2CO1 [Compound 204, (5Z)-5-({1-[4-Chloro-2-(trifluoromethyl)benzyl]-1H-indazol-5-yl}methylidene)-3-[(3R,9aS)-hexahydro-1H-[1,4]oxazino[3,4-c] [1,4]oxazin-3-ylmethyl]-1,3-thiazolidine-2,4-dione]
109 nM | O=C1S/C(=C\c2ccc3c(cnn3Cc3ccc(Cl)cc3C(F)(F)F)c2)C(=O)N1Cc1csc(NS(=O)(=O)C(F)(F)F)n1 [Compound 414, N-(4-{[(5Z)-5-({1-[4-Chloro-2-(trifluoromethyl)benzyl]-1H-indazol-5-yl}methylidene)-2,4-dioxo-1,3-thiazolidin-3-yl]methyl}-1,3-thiazol-2-yl)-1,1,1-trifluoromethanesulfonamide]
19 nM | CN1CCC(N2C(=O)S/C(=C\c3ccc4c(cnn4Cc4ccc(Cl)cc4C(F)(F)F)c3)C2=O)CC1 [Compound 135, (5Z)-5-({1-[4-Chloro-2-(trifluoromethyl)benzyl]-1H-indazol-5-yl}methylidene)-3-(1-methylpiperidin-4-yl)-1,3-thiazolidine-2,4-dione]
27 nM | CC[C@@H](CN1C(=O)S/C(=C\c2ccc3c(cnn3Cc3ccc(Cl)cc3C(F)(F)F)c2)C1=O)NS(C)(=O)=O [Compound 156, N-[(1S)-1-{[(5Z)-5-({1-[4-Chloro-2-(trifluoromethyl)benzyl]-1H-indazol-5-yl}methylidene)-2,4-dioxo-1,3-thiazolidin-3-yl]methyl}propyl] methanesulfonamide]
438 nM | O=C1S/C(=C\c2ccc3c(cnn3Cc3ccc(Cl)cc3C(F)(F)F)c2)C(=O)N1CCNc1ccc([N+](=O)[O-])cn1 [Compound 110, (5Z)-5-({1-[4-Chloro-2-(trifluoromethyl)benzyl]-1H-indazol-5-yl}methylidene)-3-{2-[(5-nitropyridin-2-yl)amino]ethyl}-1,3-thiazolidine-2,4-dione]
22 nM | O=C(O)C(C1CCNCC1)N1C(=O)S/C(=C\c2ccc3c(cnn3Cc3ccc(Cl)cc3C(F)(F)F)c2)C1=O (stereo not shown) [Compound 224, [(5Z)-5-({1-[4-Chloro-2-(trifluoromethyl)benzyl]-1H-indazol-5-yl}methylidene)-2,4-dioxo-1,3-thiazolidin-3-yl](piperidin-4-yl)acetic acid]
22 nM | CCOC(=O)CN1C(=O)S/C(=C\c2ccc3c(c2)nnn3Cc2ccc(Cl)cc2C(F)(F)F)C1=O [Compound 259, Ethyl [(5Z)-5-({1-[4-chloro-2-(trifluoromethyl)benzyl]-1H-benzotriazol-5-yl}methylidene)-2,4-dioxo-1,3-thiazolidin-3-yl]acetate]
48 nM | Cc1nn(Cc2ccc(Cl)cc2C(F)(F)F)c2ccc(/C=C3\SC(=O)N([C@@H]4CCNC[C@H]4F)C3=O)cc12 (relative stereo) [Compound 333, (5Z)-5-({1-[4-Chloro-2-(trifluoromethyl)benzyl]-3-methyl-1H-indazol-5-yl}methylidene)-3-[trans-3-fluoropiperidin-4-yl]-1,3-thiazolidine-2,4-dione]
86 nM | NC1(CN2C(=O)S/C(=C\c3ccc4c(cnn4Cc4ccc(C(F)(F)F)cc4C(F)(F)F)c3)C2=O)CCOCC1 [Compound 310, (5Z)-3-[(4-Aminotetrahydro-2H-pyran-4-yl)methyl]-5-({1-[2,4-bis(trifluoromethyl)benzyl]-1H-indazol-5-yl}methylidene)-1,3-thiazolidine-2,4-dione]
